According to EP0200345A2, “Anti-allergic or anti-inflammatory substituted (hetero)-aralkylamino-ortho-phenols” (BEECHAM GROUP PLC, priority 1985, dated 1986):
Structures can show the parent of a compound that is named as a salt.

Molecular target: T1, RBL-1 5-lipoxygenase (Rattus norvegicus, UniProt P12527)
T1 construct: 5-Lipoxygenase enzyme was prepared as a 10,000g supernatant from RBL-1 cells; endogenous in cells; host or cells: RBL-1 cells (10,000g supernatant of the homogenate)
T1 sequence (P12527 1-673): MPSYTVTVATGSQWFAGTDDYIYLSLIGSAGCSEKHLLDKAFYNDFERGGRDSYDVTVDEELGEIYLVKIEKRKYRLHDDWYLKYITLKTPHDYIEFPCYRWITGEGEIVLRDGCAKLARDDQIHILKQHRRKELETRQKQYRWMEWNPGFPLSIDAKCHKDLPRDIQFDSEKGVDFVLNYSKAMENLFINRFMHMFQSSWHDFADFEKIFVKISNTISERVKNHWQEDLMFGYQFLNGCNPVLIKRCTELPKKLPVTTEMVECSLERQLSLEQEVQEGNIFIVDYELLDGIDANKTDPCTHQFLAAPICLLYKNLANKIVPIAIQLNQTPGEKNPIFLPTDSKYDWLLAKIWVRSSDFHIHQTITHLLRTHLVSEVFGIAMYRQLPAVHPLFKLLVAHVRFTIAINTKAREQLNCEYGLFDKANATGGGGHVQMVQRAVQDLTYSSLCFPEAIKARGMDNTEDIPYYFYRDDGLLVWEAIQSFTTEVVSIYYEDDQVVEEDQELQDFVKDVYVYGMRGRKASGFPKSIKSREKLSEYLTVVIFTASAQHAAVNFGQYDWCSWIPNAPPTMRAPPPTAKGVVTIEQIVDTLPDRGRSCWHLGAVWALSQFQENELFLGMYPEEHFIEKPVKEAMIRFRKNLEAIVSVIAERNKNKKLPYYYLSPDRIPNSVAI
Experiment: RBL-1 5-lipoxygenase screen
Format: biochemical
Settings: 10,000g supernatant from RBL-1 cells, formation of 5-HETE and 5,12-diHETE; for inhibition at 20 µM: compound concentration 20 µM; for inhibition at 0.05 µM: compound concentration 0.05 µM; for inhibition at 1 µM: compound concentration 1 µM
Description: 1) RBL-1 5-LIPOXYGENASE SCREEN
5-Lipoxygenase enzyme was prepared as a 10,000g supernatant from RBL-1 cells by the method of Jakschik (Jakschik, B.A., F.F. Sun, L.M. Lee, and M.M. Steinhoff, 1980, Biochem. Biophys. Res. Comm. 95, 103). The 10,000g supernatant was diluted with homogenization buffer to the equivaleni of 1.5 -2.5 x 10^7 cells. ml.-' and made 2mM with respect to CaCl2. Aliquots of 0.5ml were then dispensed into tubes, and incubated at 29°C with 5ul ethanol or compound in ethanol at the desired concentration for 2min. Then [1-"C] arachidonic acid was added in buffer to give a final concentration of 6.3uM and 0.2uCi per incubation, and the reaction continued at 29°C for 2 min. The reaction was terminated by adding 1ml of acetone and cooling on ice, 0.5ml of ice-cold saline and 100ul of 2N formic acid were added, and the mixture was extracted with 2 ^x 2ml of chloroform. The extract was stored under N, at -20°C until analysis by chromatography. Activity was measured as the percentage of total radioactivity found in 5-HETE and 5,12-diHETE, and inhibition calculated as the decrease information of the sum of these two species in compound-treated incubates relative to control incubations.

| Structure (SMILES) | inhibition at 0.05 µM | other results |
| --- | --- | --- |
| Cc1ccc(O)c(NCc2ccccc2)c1 [Example 3, 2-Phenylmethyfamino-4-methylphenol] | – | inhibition at 20 µM: 95.4% |
| Cc1ccc(O)c(NCc2ccc(C#N)cc2)c1 [Example 5, 2-[(4-Cyanophenyl)methyl]amino-4-methylphenol] | 42.8% | – |
| Cc1ccc(CNc2cc(C)ccc2O)cc1 [Example 6, 2-[(4-Methylphenyl)methyl]amino-4-methylphenol] | 93.4% | – |
| COc1ccc(CNc2cc(C)ccc2O)cc1 [Example 7, 2-[(4-methoxyphenyl)methyl]amino-4-methylphenol] | 61.7% | – |
| Cc1ccc(O)c(NCc2ccco2)c1 [Example 9, 2-[(2-furyl)methyl]amino-4-methylphenol] | 31.4% | – |
| Cc1ccc(O)c(NCc2cccc(C(F)(F)F)c2)c1 [Example 10, 2-[(3-trifluoromethylphenyl)methyl]amino-4-methylphenol] | 89.5% | – |
| Cc1ccc(O)c(NCc2ccc(F)cc2)c1 [Example 11, 2-[(4-fluorophenyl)methyl]amino-4-methyl phenol] | 93.2% | – |
| Cc1ccc(O)c(NCc2cccs2)c1 [Example 13, 2-[(thien-2-yl)methyl]amino-4-methyl phenol] | 49.7% | – |
| Cc1ccc(O)c(NCc2ccc(Br)cc2)c1 [Example 14, 2-[(4-bromophenyl)methyl]amino-4-methyl phenol] | 64.2% | – |
| Cc1ccc(O)c(NCc2cccc(Cl)c2)c1 [Example 15] | 85% | – |
| Cc1ccc(O)c(NC(C)c2ccccc2)c1 (stereo not drawn) [Example 17, 2 -(α -Methylbenzyl)amino -4 -methylphenol] | 34% | – |
| CC(C)(C)c1ccc(O)c(NCc2ccccc2)c1 [Example 21, 2-phenylmethylamino-4-tert-butylphenol] | 35% | – |
| Oc1ccc(Br)cc1NCc1ccccc1 [Example 23, 2-phenylmethylamino-4-bromophenol] | – | inhibition at 20 µM: 98% |
| CCc1ccc(O)c(NCc2ccccc2)c1 [Example 24, 2-phenylmethylamino-4-ethylphenol] | 20% | – |
| O=C(c1ccccc1)c1cc(NCc2ccccc2)c(O)cc1O [Example 29, 4-Benzoyl-6-(Phenylmethylamino)resorcinol hydrochloride] | – | inhibition at 1 µM: 94% |
| Cc1ccc(O)c(N(Cc2ccccc2)Cc2ccccc2)c1 [Example 30, 2-Dibenzylamino-4-methylphenol] | – | inhibition at 1 µM: 91% |

Continued, in another order:

| inhibition at 0.05 µM | Structure (SMILES) | other results |
| --- | --- | --- |
| 91.4% | Cc1ccc(O)c(NCc2ccc(Cl)cc2)c1 [Example 8, 2-[(4-chlorophenyl)methyl]amino-4-methylphenol] | – |
| 73.7% | Cc1ccc(O)c(NCc2ccc(Cl)c(Cl)c2)c1 [Example 12, 2-[(3,4 dichlorophenyl)methyl]amino-4-methyl phenol] | – |
| 76% | Cc1ccc(O)c(NCc2cccc(F)c2)c1 [Example 16, 2-[(3-fluorophenyl)methyl]amino-4-methyl phenol] | – |
| 77% | CC(C)c1ccc(O)c(NCc2ccccc2)c1 [Example 20, 2-phenylmethylamino-4-iso-propylphenol] | – |
| 81% | Oc1ccc(Cl)cc1NCc1ccccc1 [Example 22, 2-phenylmethylamino-4-chlorophenol] | – |
| 80% | Cc1ccc(O)c(NCc2ccc([N+](=O)[O-])cc2)c1 [Example 25] | – |
| 80% | Cc1ccc(O)c(NCc2ccc(C(C)C)cc2)c1 [Example 26] | – |
| 12% | Cc1ccc(O)c(NCc2ccc(O)cc2)c1 [Example 27, 2-[(4-hydroxyphenyl)methyl]amino-4-methylphenol] | – |
| 86% | Cc1ccc(O)c(NCCc2ccccc2)c1 [Example 28, 2-phenylethylamino-4-methylphenol] | – |
